Source: patent US20210198284A1, “GOLD COMPOSITIONS AND METHODS OF USE THEREOF” (THE UNIVERSITY OF MASSACHUSETTS, priority 2018, published 2021)
Where two headings read alike, the source gives them in different places.

How the values were obtained:
[1] = Log P determination (n-octanol/water, FAAS)
Description: Log P Determination: Calibration curves. Milli-Q Water (150 mL) was added to n-octanol (150 mL), and the mixture was stirred for 3 days to allow both phases to reach saturation. The gold standard solution (1000 ppm Au in hydrochloric acid, Fisher Scientific) was diluted to 1, 2, 3, 4 and 5 ppm with n-octanol-saturated water, and the absorbance of the resulting solutions was measured by flame atomic absorption spectroscopy (FAAS, Agilent Technology 200 Series AA, equipped with a gold HC Lamp-Au coded). The absorbance data were plotted against Au concentration, and the resulting calibration curve was used for determining the concentration of the analogs in the aqueous phase.
To construct the standard calibration curve of the Au concentration in the n-octanol phase, compound 27 was used. The Au concentration in compound 27 was first calibrated against the aqueous gold standard. For this, 0.440 mg of compound 27 was weighed on a Sartorius MC5 microbalance, and then added to 22 mL of n-octanol-saturated water. […] For this, solutions of varying concentrations (0.99, 2.47, 4.94, 5.93, 9.88 ppm) of compound 27 in water-saturated n-octanol were prepared. The absorbance was measured by FAAS, and the data were plotted against the Au concentration to provide a second calibration curve, which was used for determining the Au concentration of the analogs in the n-octanol phase.
Determination of Au concentrations: Method 1. 0.5 to 1 mg of compound was weighed into a 2-mL Eppendorf tube containing 2 mL of n-octanol-saturated water. After shaking for about 4 h, the solution was centrifuged at 6000 rpm for 3 min. 1 mL of the supernatant was transferred to a new tube containing 1 mL of water-saturated n-octanol, and the mixture was shaken for 1 h. After centrifugation at 6000 rpm for 5 min, the two layers were collected and the gold concentration in each layer was determined by FAAS by comparing the absorbance to the first and second calibration curves.
Determination of Au concentrations: Method 2. […] For Method 2, 0.6 to 1 mg of compound was weighed into a 2-mL Eppendorf tube containing 1 mL of n-octanol-saturated water and 1 mL of water-saturated n-octanol. After shaking for 3-4 h, the mixture was centrifuged, and all liquid was transferred to a 15-mL tube. The liquid was then diluted with 2 mL of n-octanol-saturated saturated water and 2 mL of water-saturated n-octanol, and the mixture was shaken for another hour. After centrifugation at 6000 rpm for 5 min, the two layers were collected and the gold concentration in each layer was determined by FAAS by comparing the absorbance to the first and second calibration curves.
Log P was calculated as follows: log P=log[compound]oct/[compound]water

[2] = test system: C. neoformans ATCC 208821; experiment: Antifungal MIC; assay type: cell-based; conditions: C. neoforman, strain not named
A. baumannii NCTC 13420 = experiment: Antibacterial assay, MIC/MBC by broth microdilution (CLSI); assay type: cell-based; conditions: A. baumannii NCTC 13420; for MIC: repeated twice, a/b = both values
Description: (§1) Antibacterial assay. The minimum inhibitory concentrations (MICs) and the minimum bactericidal concentrations (MBCs) were determined by the broth microdilution method as described in the CLSI (The Clinical & Laboratory Standards Institute) guidelines (Performance standards for antimicrobial susceptibility testing: Clinical and Laboratory Standards Institute (CLSI), Twenty-Fifth informational supplement. Document M100-S25: […]; Vol. 35). All bacterial strains were cultured in cation-adjusted Muller Hinton broth (CAMHB) up to log-phase and then diluted to give a concentration of 7.5×10^5 CFU/mL. The gold complexes were dissolved in DMSO or water as stock solutions, which were then serially diluted two-fold in a 96-well plate. Aliquots (100 μL) of the dilutions were mixed with equal volumes of the bacterium suspension in a 96 well plate (in triplicates). The plates were incubated at 37° C. for 18 h without shaking. Negative and positive controls were included in the same well plate with wells having the culture medium only and bacteria solution only, respectively. The sample concentration that gave inhibition values above 90% were determined as MICs as calculated from absorbance values at 600 nm (OD600) obtained using a Tecan SPARK IOM plate reader. To determine minimum bactericidal concentrations (MBCs), agar plates were treated with 5 μL sample solutions from each well, and then incubated at 37° C. for 18 h without shaking. The sample concentration that gave no colony formed on agar plates were determined as MBCs.
(§2) Selection of bacteria. The ESKAPE pathogens were chosen as they are responsible for the majority of nosocomial infections and also as they provide a good scope of strains including both Gram-negative and Gram-positive species. A. baumannii NCTC 13420 was originally identified in 24 hospitals in the UK during 2000-2003, which produced OXA-51-like β-lactamases, and was highly resistant to ampicillin, piperacillin, piperacillin/tazobactam, ceftazidime, cefotaxime, gentamicin and ciprofloxacin. P. aeruginosa NCTC13437 produces VIM-10 metallo-carbapenemase and VEB-1 (Vietnamese extended-spectrum beta-lactamase). Wild-type strain E. cloacae NCTC 13405 (originally named E. cloacae 684) was isolated from patients at the London Hospital during 1982-1983. This strain has inducible AmpC β-lactamase and is resistant to ampicillin/amoxicillin and cefoxitin. K. pneumoniae ATCC 700603 was isolated from the urine of a hospitalized patient in Richmond, Va. in 1994, and it produces SHV-18 extended spectrum beta-lactamase (ESBL). JE2 (USA300) is a methicillin-resistant S. aureus (MRSA) strain, also resistant to beta-lactams, ciprofloxacin, tetracycline, macrolides (erythromycin), lincosamides (clindamycin), streptogramin B, and mupirocin. E. faecium ATCC 700221, a positive fecal VRE (vancomycin-resistant enterococcus) isolate, is resistant to several antibiotics including vancomycin and teicoplanin. The quality control strain, Gram-negative E. coli ATCC 25922, was included in all assays and validated with ciprofloxacin and […].

E. cloacae NCTC 13405 = experiment: as above; assay type: cell-based; conditions: E. cloacae NCTC 13405; for MIC: repeated twice, a/b = both values
Description: as §1, §2

E. coli ATCC 25922 = experiment: as above; assay type: cell-based; conditions: for MIC: repeated twice, a/b = both values
Description: as §1, §2

E. faecalis ATCC 700221 = experiment: as above; assay type: cell-based; conditions: for MIC: repeated twice, a/b = both values
Description: as §1, §2

[3] = test system: K. pneumoniae ATCC 700603; experiment: as above; assay type: cell-based; conditions: for MBC (in brackets) / MIC: K. pneumoniae ATCC 700603; for MIC: repeated twice, a/b = both values
Description: as §1, §2

P. aeruginosa NCTC 13437 = experiment: as above; assay type: cell-based; conditions: P. aeruginosa NCTC 13437; for MIC: repeated twice, a/b = both values
Description: as §1, §2

S. aureus JE2 (USA300) = experiment: as above; assay type: cell-based; conditions: S. aureus JE2 (USA300); for MIC: repeated twice, a/b = both values
Description: as §1, §2

A549 cells = experiment: Cytotoxicity assay (resazurin); assay type: cell-based; conditions: 20 h, mean±S.E.M. from two independent experiments
Description: Sample preparation. The compounds were dissolved in DMSO at 12.8 mg/mL as the stock solutions, except for compounds 9-17, which were directly dissolved in the culture medium at 12.8 mg/mL. The stock solutions were diluted by the culture medium to the testing concentration at 128 μg/mL (compound 9-17 were diluted to 1,280 μg/mL). The solutions were then serially diluted two fold in a 96-well plate and were used in the cytotoxicity assay immediately.
Cell culture and cytotoxicity assay. A549 cells (ATCC CCL-185) were cultured in high glucose DMEM (Sigma-Aldrich, D6429) supplemented with 10% FBS, 1% penicillin-streptomycin solution (Sigma-Aldrich, P4333), 1% gentamicin solution (Sigma-Aldrich, G1272) and 1% amphotericin B solution (Sigma-Aldrich, A2942) at 37° C. in a humidified atmosphere containing 5% CO2. After cells reached 80%˜90% confluency, they were detached and counted using an Invitrogen Countess automated cell counter. Cells with viability over 90% were seeded at a density of 5×10^3 cells per well in 96-well cell culture plates. After overnight culture, the culture medium in each well removed with a pipet. 80 μL of the compound solutions from each well of the 96-well plate prepared above were transferred to this 96-well plate containing the cells, and the plates were incubated for 20 h. After addition of 8 μL of 110 μg/mL resazurin, the plates were incubated for further 3 h at 37° C. in 5% CO2. The fluorescence intensity was measured using a Tecan M200 Infinite Pro microplate reader at excitation 560 nm, emission 590 nm. IC50 were calculated by curve fitting the inhibition values vs. log(concentration) using GraphPad's Prism. The cytotoxicity assays (in triplicate) were repeated twice using freshly prepared cells and compound solutions.

Molecule	MBC (in brackets) (A. baumannii NCTC 13420)	MIC (A. baumannii NCTC 13420)	MBC (in brackets) (E. cloacae NCTC 13405)	MIC (E. cloacae NCTC 13405)	MBC (in brackets) (E. coli ATCC 25922)	MIC (E. coli ATCC 25922)	MBC (in brackets) (E. faecalis ATCC 700221)	MIC (E. faecalis ATCC 700221)	MBC (in brackets) [3]	MIC [3]	MBC (in brackets) (P. aeruginosa NCTC 13437)	MIC (P. aeruginosa NCTC 13437)	MBC (in brackets) (S. aureus JE2 (USA300))	IC50 against A549 cells (A549 cells) [µg/mL]	MIC (S. aureus JE2 (USA300))	Log P ([1]; n-octanol/water, gold by FAAS)	also measured
CC[P+](CC)(CC)[Au-]1[SH](CC2O[C@H](O[C@H]3OC(COC(C)=O)[C@@H](OC(C)=O)C(OC(C)=O)[C@H]3OC(C)=O)C(OC(C)=O)[C@@H](OC(C)=O)[C@@H]2OC(C)=O)[Au]1[PH](CC)(CC)CC (some centres unmarked) [Compound 7]																	logP [1]: -0.28; antifungal activity in words [2]: moderate antifungal activity
(4-Aminobenzenethiolato)(triethylphosphine) gold(I) [Compound 20]	18 (18) μM/mL	18 (18) μM/mL	36 (36) μM/mL	36 (36) μM/mL	9 (9) μM/mL	9 (9) μM/mL	(0.1) μM/mL	0.02 μM/mL	36 (36) μM/mL	36 (36) μM/mL	146 (146) μM/mL	146 (146) μM/mL	2 (0.07) μM/mL	6.5 ± 1.1			MIC or MIC/MBC, fold lower than auranofin ([3]; K. pneumoniae): 10 fold; MIC/MBC ([3]; K. pneumoniae): 36 µM; Log P [1]: 1.36
(Benzenethiolato)(triethylphosphine) gold(I) [Compound 18]	(>603) μM/mL	19/75	603 μM/mL	75 μM/mL	(151) μM/mL	151 μM/mL	1 μM/mL	0.6 μM/mL		>603 μM/mL	302 (302) μM/mL	302 (302) μM/mL	(0.6) μM/mL	4.3 ± 0.2	0.02 μM/mL		Log P [1]: 2.20
(Tri-n-butylphosphine) gold chloride [Compound 30]	(147) μM/mL	74/147		>589 μM/mL		>589 μM/mL	5 (5) μM/mL	5 (5) μM/mL	147 (147) μM/mL	147 (147) μM/mL	74 (74) μM/mL	74 (74) μM/mL	4 μM/mL	4.7 ± 0.0	2 μM/mL	>3.99	
(Triethylphosphine) gold chloride [Compound 29]	23 μM/mL	11/23	23 (23) μM/mL	23 (23) μM/mL	23 (23) μM/mL	23 (23) μM/mL	(0.7) μM/mL		46 (46) μM/mL	46 (46) μM/mL	183 μM/mL	92 μM/mL	02 (0.2) μM/mL	9.5 ± 0.1		1.74	
(Tris(4-methoxyphenyl)phosphine) gold chloride [Compound 32]		>438 μM/mL		>438 μM/mL		>438 μM/mL	3 (3) μM/mL	3 (3) μM/mL		>438 μM/mL		>438 μM/mL	3 μM/mL	9.4 ± 1.7	2 μM/mL	>4.09	
(Tris(4-trifluoromethylphenyl)phosphine) gold chloride [Compound 34]		>366 μM/mL		>366 μM/mL		>366 μM/mL		>366 μM/mL		>366 μM/mL		>366 μM/mL	11 μM/mL	85.6 ± 26.1	3/1	>3.94	
